Data on 11 molecules can be found in patent publication US20250195513A1, “DEGRADATION OF IRAK4 BY CONJUGATION OF IRAK4 INHIBITORS WITH E3 LIGASE LIGAND AND METHODS OF USE” (BeiGene, Ltd., priority 2022, published 2025).

Read-outs that look alike come from different tables or passages of the source.

The assay deals with T1, IRAK4 (Homo sapiens, UniProt Q9NWZ3).
T1 construct: endogenous in cells; host or cells: Karpas299
T1 sequence (Q9NWZ3 1-460): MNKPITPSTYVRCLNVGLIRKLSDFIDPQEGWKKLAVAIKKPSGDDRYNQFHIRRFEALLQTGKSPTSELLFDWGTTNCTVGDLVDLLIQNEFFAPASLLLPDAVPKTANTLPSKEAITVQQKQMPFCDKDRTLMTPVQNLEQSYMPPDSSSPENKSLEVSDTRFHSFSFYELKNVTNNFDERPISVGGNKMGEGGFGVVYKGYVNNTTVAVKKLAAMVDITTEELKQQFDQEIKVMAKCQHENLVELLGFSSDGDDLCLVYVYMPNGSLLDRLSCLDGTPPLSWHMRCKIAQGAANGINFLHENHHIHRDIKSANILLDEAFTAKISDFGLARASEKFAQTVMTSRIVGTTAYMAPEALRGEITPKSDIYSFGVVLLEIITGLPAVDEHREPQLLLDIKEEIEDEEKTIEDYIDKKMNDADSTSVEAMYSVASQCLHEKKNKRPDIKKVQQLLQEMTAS
As to the kind of experiment: IRAK4 Degradation Assay (Karpas299, HTRF/TR-FRET). It counts as cell-based. How it is done:
IRAK4 degradation was measured using a TR-FRET-based method (Degorce, François, et al. Current chemical genomics. 2009, 3: 22). Karpas299 maintained in RPMI 1640 medium (Thermo Scientific) supplemented with 20% fetal bovine serum (FBS, Thermo Scientific), 100 units/mL penicillin and 0.1 mg/mL streptomycin (Thermo Scientific) were seeded into 96-well plates at the density of 0.2 million cells per well and then treated with a series dilution of compounds. After 24 hours or 5 hours treatment, cells were pelleted via centrifugation and 40 μL lysis buffer (Cisbio) was added to each well after removal of the supernatant. Plates were then incubated at room temperature with shaking for 30 minutes. A total of 16 μL of cell lysates from each well of a 96-well plate was transferred to a 384-well white assay plate. IRAK4 level was quantitated using the HTRF kit as described by the manufacturer manual (Cisbio). FRET signals were measured using a PHERAstar FSX reader (BMG Labtech).
After treatment, add HTRF lysis buffer to each well; seal the plate and incubate 1 hour at room temperature on a plate shaker; Once the cells are lysed, 16 μL of cell lysate are transferred to a PE 384-well HTRF detection plate; 4 μL of pre-mixed HTRF antibodies are added to each well; Cover the plate with a plate sealer, spin 1000 rpm for 1 min, Incubate overnight at room temperature; Read on BMG PheraStar with HTRF protocol (337 nm-665 nm-620 nm).
The inhibition (degradation) percentage of the compound was calculated by the following equation: […]
The IC50 (DC50) value of a compound can be obtained by fitting the following equation
Wherein, X and Y are known values, and IC50, Hillslope, Top and Bottom are the parameters obtained by fitting with software. Y is the inhibition percentage (calculated from the equation), X is the concentration of the compound; IC50 is the concentration of the compound when the […] is reached. The smaller the IC50 value is, the stronger the inhibitory ability of the compound is. Vice versa, the higher the IC50 value is, the weaker the ability the inhibitory ability of the compound is; Hillslope represents the slope of the fitted curve, generally around 1 *; Bottom represents the minimum value of the curve obtained by data fitting, which is generally 0%±20%; Top represents the maximum value of the curve obtained by data fitting, which is generally 100%±20%. The experimental data were fitted by calculating and analyzing with Dotmatics data analysis software.

Setting [1] is: Degradation (Karpas-299), comparison table, Linker Type A, read-out: Compound (Linker Type A) DC50.
Setting [2] is: Degradation (Karpas-299), comparison table, Linker Type A, read-out: Compound (Linker Type A) Dmax (%).
[3] abbreviates: Karpas-299 cells, 24 h treatment, maximum percentage of degradation, read-out: IRAK4 in Karpas-299 (24 h) Dmax (%).
The mark [4] stands for this setting: Karpas-299 cells, 24 h treatment, read-out: IRAK4 in Karpas-299 (24 h) DC50.

On to `O=C1CC[C@H](c2c(F)cc(CCN3CCN(C[C@H]4CC[C@H](n5cc(NC(=O)c6coc(-c7ccnc(NCC(F)(F)F)c7)n6)c(C(F)F)n5)CC4)CC3)cc2F)C(=O)N1` [Example 1, N-(3-(difluoromethyl)-1-((1R,4r)-4-((4-(4-((R)-2,6-dioxopiperidin-3-yl)-3,5-difluorophenethyl)piperazin-1-yl)methyl)cyclohexyl)-1H-pyrazol-4-yl)-2-(2-((2,2,2-trifluoroethyl)amino)pyridin-4-yl)oxazole-4-carboxamide], for which the 50% degradation concentration (DC50) (usually the concentration at which degradation of the target reaches its halfway point) under setting [1] was over 10000 nM and the half-maximal degradation concentration (DC50) under setting [4] is over 10000 nM. Moreover, the Dmax (in general, the greatest extent of degradation seen) runs as follows: under setting [2], 46%; under setting [3], 46%.

Take `O=C1CCN(c2ccc(N3CCC(N4CCN(C[C@H]5CC[C@H](n6cc(NC(=O)c7coc(-c8ccnc(NCC(F)(F)F)c8)n7)c(C(F)F)n6)CC5)CC4)CC3)cc2)C(=O)N1` [Example 2, N-(3-(difluoromethyl)-1-((1r,4r)-4-((4-(1-(4-(2,4-dioxotetrahydropyrimidin-1(2H)-yl)phenyl)piperidin-4-yl)piperazin-1-yl)methyl)cyclohexyl)-1H-pyrazol-4-yl)-2-(2-((2,2,2-trifluoroethyl)amino)pyridin-4-yl)oxazole-4-carboxamide]: the DC50 reads like this: under setting [1], over 10000 nM; under setting [4], over 10000 nM. Besides, the Dmax reads like this: under setting [2], 6.5%; under setting [3], 6.5%.

Consider `O=C1CCN(c2ccc(N3CC(N4CCN(C[C@H]5CC[C@H](n6cc(NC(=O)c7coc(-c8ccnc(NCC(F)(F)F)c8)n7)c(C(F)F)n6)CC5)CC4)C3)cc2)C(=O)N1` [Example 3, N-(3-(difluoromethyl)-1-((1r,4r)-4-((4-(1-(4-(2,4-dioxotetrahydropyrimidin-1(2H)-yl)phenyl)azetidin-3-yl)piperazin-1-yl)methyl)cyclohexyl)-1H-pyrazol-4-yl)-2-(2-((2,2,2-trifluoroethyl)amino)pyridin-4-yl)oxazole-4-carboxamide], for which the DC50 under setting [1] is over 10000 nM and the DC50 under setting [4] was over 10000 nM. The Dmax reads like this: under setting [2], 9%; under setting [3], 9%.

`O=C1CC[C@H](c2c(F)cc(N3CC(C(=O)N4CCN(C[C@H]5CC[C@H](n6cc(NC(=O)c7coc(-c8ccnc(NCC(F)(F)F)c8)n7)c(C(F)F)n6)CC5)CC4)C3)cc2F)C(=O)N1` [Example 4, N-(3-(difluoromethyl)-1-((1r,4r)-4-((4-(1-(4-((R)-2,6-dioxopiperidin-3-yl)-3,5-difluorophenyl)azetidine-3-carbonyl)piperazin-1-yl)methyl)cyclohexyl)-1H-pyrazol-4-yl)-2-(2-((2,2,2-trifluoroethyl)amino)pyridin-4-yl)oxazole-4-carboxamide]: the DC50 stood at 6.2 nM under setting [1] and 6.2 nM under setting [4]. Further, the Dmax was found to be 95% under setting [2] and 95% under setting [3].

As for `COc1cc2nn([C@H]3CC[C@H](CN4CCN(C(=O)C5CN(c6ccc(N7CCC(=O)NC7=O)cc6)C5)CC4)CC3)cc2cc1NC(=O)c1cccc(C(F)(F)F)n1` [Example 5, N-(2-((1r,4r)-4-((4-(1-(4-(2,4-dioxotetrahydropyrimidin-1(2H)-yl)phenyl)azetidine-3-carbonyl)piperazin-1-yl)methyl)cyclohexyl)-6-methoxy-2H-indazol-5-yl)-6-(trifluoromethyl)picolinamide], the DC50 worked out at 14 nM under setting [1] and 14 nM under setting [4]. Besides, the Dmax is 92% under setting [2] and 92% under setting [3].

As to `COc1cc2nn([C@H]3CC[C@H](CN4CCN(C(=O)[C@H]5CC[C@H](Oc6ccc(N7CCC(=O)NC7=O)cc6)CC5)CC4)CC3)cc2cc1NC(=O)c1cccc(C(F)(F)F)n1` [Example 6, N-(2-((1R,4r)-4-((4-((1r,4R)-4-(4-(2,4-dioxotetrahydropyrimidin-1(2H)-yl)phenoxy)cyclohexane-1-carbonyl)piperazin-1-yl)methyl)cyclohexyl)-6-methoxy-2H-indazol-5-yl)-6-(trifluoromethyl)picolinamide], the DC50 runs as follows: under setting [1], over 10000 nM; under setting [4], over 10000 nM. The Dmax turned out to be 11% under setting [2] and 11% under setting [3].

Regarding `COc1cc2nn([C@H]3CC[C@H](CN4CCN(C(=O)C5CCN(c6ccc(N7CCC(=O)NC7=O)cc6)CC5)CC4)CC3)cc2cc1NC(=O)c1cccc(C(F)(F)F)n1` [Example 7, N-(2-((1r,4r)-4-((4-(1-(4-(2,4-dioxotetrahydropyrimidin-1(2H)-yl)phenyl)piperidine-4-carbonyl)piperazin-1-yl)methyl)cyclohexyl)-6-methoxy-2H-indazol-5-yl)-6-(trifluoromethyl)picolinamide], the DC50 is, setting by setting: under setting [1], 137 nM; under setting [4], 137 nM. Also, the maximal degradation (Dmax) runs as follows: under setting [2], 66%; under setting [3], 66%.

As for `NC(=O)c1nn([C@H]2CC[C@H](N3CCN(C(=O)C4CN(c5ccc(N6CCC(=O)NC6=O)cc5)C4)CC3)CC2)cc1NC(=O)c1coc(-c2ccnc(NCC(F)(F)F)c2)n1` [Example 8, N-(3-carbamoyl-1-((1r,4r)-4-(4-(1-(4-(2,4-dioxotetrahydropyrimidin-1(2H)-yl)phenyl)azetidine-3-carbonyl)piperazin-1-yl)cyclohexyl)-1H-pyrazol-4-yl)-2-(2-((2,2,2-trifluoroethyl)amino)pyridin-4-yl)oxazole-4-carboxamide], the maximal degradation (Dmax) under setting [3] came to 97%. In addition, the DC50 under setting [4] turned out to be 2.1 nM.

Consider `NC(=O)c1nn([C@H]2CC[C@H](N3CCN(C4CC(c5ccc(N[C@@H]6CCC(=O)NC6=O)cc5)C4)CC3)CC2)cc1NC(=O)c1coc(-c2ccnc(NCC(F)(F)F)c2)n1` (stereo partly drawn) [Example 9, N-(3-carbamoyl-1-((1r,4r)-4-(4-(3-(4-(((R)-2,6-dioxopiperidin-3-yl)amino)phenyl)cyclobutyl)piperazin-1-yl)cyclohexyl)-1H-pyrazol-4-yl)-2-(2-((2,2,2-trifluoroethyl)amino)pyridin-4-yl)oxazole-4-carboxamide], for which the greatest degradation seen (Dmax) under setting [3] turned out to be 95%. Also, the half-maximal degradation concentration (DC50) under setting [4] is 2.5 nM.

Turning to `NC(=O)c1nn([C@H]2CC[C@H](N3CCN(C4CC(c5ccc(N[C@H]6CCC(=O)NC6=O)cc5)C4)CC3)CC2)cc1NC(=O)c1coc(-c2ccnc(NCC(F)(F)F)c2)n1` (stereo partly drawn) [Example 10, N-(3-carbamoyl-1-((1r,4r)-4-(4-(3-(4-(((S)-2,6-dioxopiperidin-3-yl)amino)phenyl)cyclobutyl)piperazin-1-yl)cyclohexyl)-1H-pyrazol-4-yl)-2-(2-((2,2,2-trifluoroethyl)amino)pyridin-4-yl)oxazole-4-carboxamide], the maximal degradation (Dmax) under setting [3] worked out at 92%. Further, the half-maximal degradation concentration (DC50) under setting [4] came out at 5.4 nM.

`NC(=O)c1nn([C@H]2CC[C@H](N3CCN(C(=O)C4CN(c5cc(F)c([C@H]6CCC(=O)NC6=O)c(F)c5)C4)CC3)CC2)cc1NC(=O)c1coc(-c2ccnc(NCC(F)(F)F)c2)n1` [Example 11, N-(3-carbamoyl-1-((1r,4r)-4-(4-(1-(4-((R)-2,6-dioxopiperidin-3-yl)-3,5-difluorophenyl)azetidine-3-carbonyl)piperazin-1-yl)cyclohexyl)-1H-pyrazol-4-yl)-2-(2-((2,2,2-trifluoroethyl)amino)pyridin-4-yl)oxazole-4-carboxamide]: the Dmax is, setting by setting: (Karpas-299 cells, 5 h treatment, maximum percentage of degradation, read-out: IRAK4 in Karpas-299 (5 h) Dmax (%)) 94%; under setting [3], 97%. Further, the 50% degradation concentration (DC50) (Karpas-299 cells, 5 h treatment, read-out: IRAK4 in Karpas-299 (5 h) DC50) stood at 2.4 nM and the half-maximal degradation concentration (DC50) under setting [4] is 1.6 nM.
